Values after ≈ are worked out from the molar mass of the structure shown. Active and inactive are the calls of the source. The rule behind the calls is not given here.
How the values were obtained:
[1] = molecular target: T1, Inorganic pyrophosphatase (Mycobacterium tuberculosis (strain ATCC 25618 / H37Rv)) (UniProt P9WI55); assay: Inhibition of Mycobacterium tuberculosis PPase at 100 uM using inorganic pyrophosphate as substrate preincubated for 2 mins followed by substrate addition measured after 6 mins by malachite green assay
T1 sequence (whole entry): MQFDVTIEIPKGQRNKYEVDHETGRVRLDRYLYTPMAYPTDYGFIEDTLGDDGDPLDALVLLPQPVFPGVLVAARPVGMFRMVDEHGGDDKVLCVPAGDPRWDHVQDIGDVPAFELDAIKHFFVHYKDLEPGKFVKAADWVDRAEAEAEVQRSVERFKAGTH

[2] = molecular target: T2, Inorganic pyrophosphatase (Mycobacterium tuberculosis (strain ATCC 25618 / H37Rv), UniProt P9WI55); assay: Inhibition of Mycobacterium tuberculosis PPase using inorganic pyrophosphate as substrate preincubated for 2 mins followed by substrate addition measured after 6 mins by malachite green assay
T2 sequence (P9WI55 whole entry): T1 sequence (whole entry)

[3] = tested on: Mycobacterium tuberculosis; assay: microbe, parasite or virus in culture; conditions: H37Rv, 96 h
[4] = Solubility of the compound in DMSO; assay type: physicochemical
HeLa = assay: Cytotoxicity against human HeLa cells at 64 uM after 2 hrs by MTS assay relative to control; assay type: cell-based
[5] = Cytotoxicity against mouse J774A1 cells at 64 uM after 2 hrs by MTS assay relative to control; assay type: cell-based; conditions: j774.a1, 2 h
Bacillus anthracis = assay: microbe, parasite or virus in culture; conditions: Sterne 34F2, 20 h
Bacillus subtilis = assay: microbe, parasite or virus in culture; conditions: 20 h
Staphylococcus aureus = assay: microbe, parasite or virus in culture; conditions: 20 h

Row | SMILES | inhibition [1] | MIC [3] | also measured
1 | O=[N+]([O-])c1cccc(-c2cnnc(N3CCC(c4cccc(Cl)c4)C3)n2)c1 (stereo not drawn) | 39.4% | > 128 µM | IC50 [2]: 118 µM
2 | FC(F)(F)c1ccccc1-c1ccc(-c2cnnc(N3CCC(c4cccc(Cl)c4)C3)n2)o1 (stereo not drawn) | 67.7% | > 128 µM | IC50 [2]: 38.3 µM
3 | COC(=O)c1cccc(-c2ccc(-c3cnnc(N4CCC(c5cccc(Cl)c5)C4)n3)o2)c1 (stereo not drawn) |  | > 16 µM | solubility [4]: < 100 µM
4 | COc1ccc(C2CCN(c3nncc(-c4ccc(C)o4)n3)C2)cc1O (stereo not drawn) | 5% | > 128 µM | 
5 | Cc1ccc(-c2cnnc(N3CCC(c4ccc(O)c(O)c4)C3)n2)o1 (stereo not drawn) | inactive | > 128 µM | 
6 | Cc1ccc(-c2cnnc(N3CCC(c4cccc(OCc5ccccc5)c4)C3)n2)o1 (stereo not drawn) | 73.2% |  | IC50 [2]: 63.2 µM
7 | O=[N+]([O-])c1ccc(-c2cnnc(N3CCC(c4cccc(Cl)c4)C3)n2)cc1 (stereo not drawn) | 30.3% | 31.2 µM (≈ 11.9 µg/mL) | 
8 | Cc1ccc(-c2cnnc(N3CCC(c4cccc([N+](=O)[O-])c4)C3)n2)o1 (stereo not drawn) |  | > 16 µM | solubility [4]: < 100 µM
9 | Cc1ccc(-c2cnnc(N3CCC(c4ccccc4)C3)n2)o1 (stereo not drawn) | 19.7% | 40.5 µM (≈ 12.4 µg/mL) | 
10 | Clc1cccc(C2CCN(c3nncc(-c4ccc5c(c4)OCO5)n3)C2)c1 (stereo not drawn) |  | > 16 µM | solubility [4]: < 100 µM
11 | Nc1ccc(-c2cnnc(N3CCC(c4cccc(Cl)c4)C3)n2)cc1 (stereo not drawn) |  | 5.7 µM (≈ 2.01 µg/mL) | Activity (HeLa): Non-toxic; Activity [5]: Non-toxic; MBC (Bacillus anthracis): 128 µM (≈ 45 µg/mL); MIC (Bacillus anthracis): 16 µM (≈ 5.63 µg/mL)
12 | Cc1ccc(-c2cnnc(N3CCC(c4cccc(N)c4)C3)n2)o1 (stereo not drawn) | 33.4% | 70.1 µM (≈ 22.5 µg/mL) | 
13 | CO[C@H]1/C=C/O[C@@]2(C)Oc3c(C)c(O)c4c(O)c(c(/C=N/N5CCN(C)CC5)c(O)c4c3C2=O)NC(=O)/C(C)=C\C=C\[C@H](C)[C@H](O)[C@@H](C)[C@@H](O)[C@@H](C)[C@H](OC(C)=O)[C@@H]1C [RIFAMPIN] |  | 0.08 µM (≈ 0.0658 µg/mL) | 
14 | O=[N+]([O-])c1cccc(-c2ccc(-c3cnnc(N4CCC(c5cccc(Cl)c5)C4)n3)cc2)c1 (stereo not drawn) | inactive | > 128 µM | 
15 | NNC(=O)c1ccncc1 [ISONIAZID] |  | 0.45 µM (≈ 0.0617 µg/mL) | 
16 | Cc1ccc(-c2cnnc(N3CCC(c4cccc(Cl)c4)C3)n2)o1 (stereo not drawn) | 45.6% | 61 µM (≈ 20.8 µg/mL) | IC50 [2]: 148 µM
17 | Cc1ccc(-c2cnnc(N3CCC(c4cccc(C#N)c4)C3)n2)o1 (stereo not drawn) | 10.3% | 64.4 µM (≈ 21.3 µg/mL) | 
18 | O=[N+]([O-])c1cccc(-c2ccc(-c3cnnc(N4CCC(c5cccc(Cl)c5)C4)n3)o2)c1 (stereo not drawn) |  | > 16 µM | solubility [4]: < 100 µM
19 | Cc1ccc(-c2cnnc(N3CCC(n4cnc5c(N)ncnc54)C3)n2)o1 (stereo not drawn) | inactive | > 128 µM | 
20 | Cc1ccc(-c2cnnc(N3CCC(c4cccc(F)c4)C3)n2)o1 (stereo not drawn) | 21.3% | 38.9 µM (≈ 12.6 µg/mL) | 
21 | Clc1cccc(C2CCN(c3nncc(-c4ccccc4)n3)C2)c1 (stereo not drawn) |  |  | Activity (HeLa): Non-toxic; Activity [5]: Non-toxic
22 | Cc1ccc(-c2cnnc(N3CCC(c4cccc(C(F)(F)F)c4)C3)n2)o1 (stereo not drawn) | 37.8% | 52.4 µM (≈ 19.6 µg/mL) | IC50 [2]: 355 µM
23 | Nc1cccc(-c2cnnc(N3CCC(c4cccc(Cl)c4)C3)n2)c1 (stereo not drawn) |  |  | Activity (HeLa): Non-toxic; Activity [5]: Non-toxic
24 | CN[C@H](CC(C)C)C(=O)N[C@H]1C(=O)N[C@@H](CC(N)=O)C(=O)N[C@H]2C(=O)N[C@H]3C(=O)N[C@H](C(=O)N[C@H](C(=O)O)c4cc(O)cc(O)c4-c4cc3ccc4O)[C@H](O)c3ccc(c(Cl)c3)Oc3cc2cc(c3O[C@@H]2O[C@H](CO)[C@@H](O)[C@H](O)[C@H]2O[C@H]2C[C@](C)(N)[C@H](O)[C@H](C)O2)Oc2ccc(cc2Cl)[C@H]1O [VANCOMYCIN] |  |  | MBC (Bacillus subtilis): < 1 µM; MIC (Bacillus subtilis): < 1 µM; MBC (Bacillus anthracis): < 1 µM; MIC (Bacillus anthracis): < 1 µM
25 | COc1ccc(-c2cnnc(N3CCC(c4cccc(Cl)c4)C3)n2)cc1OC (stereo not drawn) |  |  | Activity (HeLa): Non-toxic; Activity [5]: Non-toxic
26 | Cc1ccc(-c2cnnc(N3CCC(c4cccc(O)c4)C3)n2)o1 (stereo not drawn) | inactive | 60.3 µM (≈ 19.4 µg/mL) | Activity (HeLa): Non-toxic; Activity [5]: Non-toxic; MIC (Bacillus subtilis): 128 µM (≈ 41.3 µg/mL); MBC (Bacillus anthracis): 128 µM (≈ 41.3 µg/mL); MIC (Bacillus anthracis): 64 µM (≈ 20.6 µg/mL); MIC (Staphylococcus aureus): > 50 µM
27 | Clc1cccc(C2CCN(c3nncc(-c4ccc(Br)cc4)n3)C2)c1 (stereo not drawn) | 53% | 30.7 µM (≈ 12.8 µg/mL) | IC50 [2]: 33.3 µM

Reference: ChEMBL document CHEMBL3098072 (Bioorg Med Chem, 2014)
